Papp, logD and IC50 data for 16 compounds are collected here from patent publication US20240317708A1, “INHIBITORS OF TRANSGLUTAMINASES” (ZEDIRA GMBH, priority 2021, published 2024).

The nature of series [1]: Caco-2 permeability assay (CacoReady kit). Format: in vitro ADME. To be noted: human. Summed up: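 Intestinal permeability modelled with kit-supplied Caco-2 barriers, run as the maker specifies; each compound reported as Papp.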
On the technique in general: Caco-2 monolayers are a common model of the intestinal barrier.

The nature of series [2]: Log D shake flask method (octanol / PBS pH 7.4, HPLC). Format: physicochemical. The note with it: octanol/phosphate-buffered saline (PBS); octanol / PBS pH 7.4, shake flask. The method, then: In order to classify the inventive compounds according to their lipophilicity, Log D values (distribution coefficient) were determined by means of the well-established shake flask method, measuring the partition of a compound between an octanol and phosphate-buffered saline (PBS, pH 7.4) by HPLC.

Series [3] deals with T1, recombinant human transglutaminase 2 (Homo sapiens, UniProt P21980).
T1 construct: purchased Zedira T022
T1 sequence (P21980 1-687): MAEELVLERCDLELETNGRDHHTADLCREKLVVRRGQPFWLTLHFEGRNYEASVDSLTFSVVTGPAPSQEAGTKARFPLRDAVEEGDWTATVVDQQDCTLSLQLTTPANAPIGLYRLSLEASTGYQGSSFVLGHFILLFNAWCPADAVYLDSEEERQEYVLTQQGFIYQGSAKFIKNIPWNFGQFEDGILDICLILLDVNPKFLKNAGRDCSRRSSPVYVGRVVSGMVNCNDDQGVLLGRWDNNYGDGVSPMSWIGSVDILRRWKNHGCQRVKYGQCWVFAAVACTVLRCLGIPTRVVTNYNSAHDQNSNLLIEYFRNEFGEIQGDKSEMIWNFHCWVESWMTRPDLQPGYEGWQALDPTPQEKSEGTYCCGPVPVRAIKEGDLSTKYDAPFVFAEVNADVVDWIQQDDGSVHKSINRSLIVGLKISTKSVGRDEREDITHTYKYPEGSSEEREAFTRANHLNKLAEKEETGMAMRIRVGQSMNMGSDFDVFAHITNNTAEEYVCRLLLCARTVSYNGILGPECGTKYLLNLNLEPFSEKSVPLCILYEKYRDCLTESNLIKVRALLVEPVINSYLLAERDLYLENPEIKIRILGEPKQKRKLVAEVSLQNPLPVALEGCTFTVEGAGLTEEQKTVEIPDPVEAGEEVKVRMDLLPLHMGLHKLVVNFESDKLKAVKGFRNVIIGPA
Nature of the series: Transglutaminase assay (dansylcadaverine incorporation into dimethylcasein, DCC-assay). In kind it is biochemical. To be noted: recombinant human TG2 10 nM, dansylcadaverine/dimethylcasein, 37° C. In a few lines: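 IC50 derived from fluorescence slope between 20 and 30 min (λex 330 nm, λem 500 nm, 37 °C), expressed relative to a 2% DMSO control. Reaction: 10 nM recombinant human TG2, 4 μM dimethylcasein, 16.7 μM dansylcadaverine, 10 mM CaCl2 and glutathione, pH 8.0.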

A value given as a limit tells only on which side of the number the result lay.

Usually Papp stands for the rate of passage across a membrane or cell layer, normalised by area and donor concentration. As usually defined, the logD is the decadic logarithm of the distribution of all forms, ionised or not, between an organic phase and buffer at a given pH. A higher logD goes with a more lipophilic compound. In general, IC50 refers to the concentration at which inhibition is half-maximal.

Regarding `COC(=O)/C=C/CC[C@H](NC(=O)c1oc2ccccc2c1C)C(=O)Nc1cccn(CC(=O)NC23CC4CC(CC(Br)(C4)C2)C3)c1=O` [III-53, (S,E)-methyl 7-(1-(2-(3-bromoadamantan-1-amino)-2-oxoethyl)-2-oxo-1,2-dihydropyridin-3-ylamino)-6-(3-methylbenzofuran-2-carboxamido)-7-oxohept-2-enoate], in series [1], the apparent permeability (Papp) is 1 to 10 ×10⁻⁶ cm/s. The compound further yielded a logD in series [2] of 3 to 5. In series [3], the IC50 was below 25 nM.
In series [1], `COC(=O)/C=C/CC[C@H](NC(=O)c1oc2ccccc2c1C)C(=O)Nc1cccn(CC(=O)NC23CC4CC(C2)CC(C(=O)OC)(C4)C3)c1=O` [III-54, (S,E)-methyl 7-(1-(2-(3-methyladamantane-3-carboxylate-1-amino)-2-oxoethyl)-2-oxo-1,2-dihydropyridin-3-ylamino)-6-(3-methylbenzofuran-2-carboxamido)-7-oxohept-2-enoate] returned a Papp below 1 ×10⁻⁶ cm/s. Moreover, in series [2], the logD lay within 3 to 5. For the same compound, in series [3], the IC50 was 25 to 250 nM.
In the same order, the values of `COC(=O)/C=C/CC[C@H](NC(=O)c1oc2ccccc2c1C)C(=O)Nc1cccn(CC(=O)NC23CC4CC(C2)C(F)(F)C(C4)C3)c1=O` [III-55, (S,E)-methyl 7-(1-(2-(4,4-difluoroadamantan-1-amino)-2-oxoethyl)-2-oxo-1,2-dihydropyridin-3-ylamino)-6-(3-methylbenzofuran-2-carboxamido)-7-oxohept-2-enoate] are 1 to 10 ×10⁻⁶ cm/s, 3 to 5 and 25 to 250 nM.
Taken in the same sequence, the figures for `COC(=O)/C=C/CC[C@H](NC(=O)c1oc2ccccc2c1C)C(=O)Nc1cccn(CC(=O)NCC23CC4CC(CC(C4)C2)C3)c1=O` [III-56, (S,E)-methyl 7-(1-(2-(1-adamantylmethylamino)-2-oxoethyl)-2-oxo-1,2-dihydropyridin-3-ylamino)-6-(3-methylbenzofuran-2-carboxamido)-7-oxohept-2-enoate] were 1 to 10 ×10⁻⁶ cm/s, 3 to 5 and 25 to 250 nM.
The compound `COC(=O)/C=C/CC[C@H](NC(=O)c1oc2ccccc2c1C)C(=O)Nc1cccn(CC(=O)NC(C)C23CC4CC(CC(C4)C2)C3)c1=O` (stereo partly drawn) [III-57, (S,E)-methyl 7-(1-(2-(1-(1-adamantyl)ethanamino)-2-oxoethyl)-2-oxo-1,2-dihydropyridin-3-ylamino)-6-(3-methylbenzofuran-2-carboxamido)-7-oxohept-2-enoate] registered a Papp in series [1] of 1 to 10 ×10⁻⁶ cm/s. Besides, in series [2], the logD lay within 3 to 5. Besides, the IC50 in series [3] fell in the range of 25 to 250 nM.
In the same order, the values of `COC(=O)/C=C/CC[C@H](NC(=O)c1cncn1C)C(=O)Nc1cccn(CC(=O)N[C@@H]2C[C@@H]3CC[C@H]2C3)c1=O` [III-58, (S,E)-methyl 7-(1-(2-((1S,2R,4R)-bicyclo[2.2.1]heptan-2-ylamino)-2-oxoethyl)-2-oxo-1,2-dihydropyridin-3-ylamino)-6-(1-methyl-1H-imidazole-5-carboxamido)-7-oxohept-2-enoate] are below 1 ×10⁻⁶ cm/s, 1 to 3 and below 25 nM.
Turning to `COC(=O)/C=C/CC[C@H](NC(=O)c1oc2ccccc2c1C)C(=O)Nc1cccn(CC(=O)N[C@@H]2C[C@@H]3CC[C@H]2C3)c1=O` [III-59, (S,E)-methyl 7-(1-(2-((1 S,2R,4R)-bicyclo[2.2.1]heptan-2-ylamino)-2-oxoethyl)-2-oxo-1,2-dihydropyridin-3-ylamino)-6-(3-methylbenzofuran-2-carboxamido)-7-oxohept-2-enoate], the Papp in series [1] was in the range of 1 to 10 ×10⁻⁶ cm/s. Moreover, the logD in series [2] is 3 to 5. Further, the IC50 in series [3] was below 25 nM.
In the same order, the values of `COC(=O)/C=C/CC[C@H](NC(=O)c1cncn1C)C(=O)Nc1cccn(CC(=O)N[C@H]2C[C@H]3CC[C@]2(C)C3(C)C)c1=O` [III-60, (S,E)-methyl 6-(1-methyl-1H-imidazole-5-carboxamido)-7-oxo-7-(2-oxo-1-(2-oxo-2-((1R,2S,4R)-1,7,7-trimethylbicyclo[2.2.1]heptan-2-ylamino)ethyl)-1,2-dihydropyridin-3-ylamino)hept-2-enoate] are below 1 ×10⁻⁶ cm/s, 3 to 5 and below 25 nM.
In the same order, the values of `COC(=O)/C=C/CC[C@H](NC(=O)c1oc2ccccc2c1C)C(=O)Nc1cccn(CC(=O)N[C@H]2C[C@H]3CC[C@]2(C)C3(C)C)c1=O` [III-61, (S,E)-methyl 6-(3-methylbenzofuran-2-carboxamido)-7-oxo-7-(2-oxo-1-(2-oxo-2-((1R,2S,4R)-1,7,7-trimethylbicyclo[2.2.1]heptan-2-ylamino)ethyl)-1,2-dihydropyridin-3-ylamino)hept-2-enoate] are 1 to 10 ×10⁻⁶ cm/s, 3 to 5 and 25 to 250 nM.
In the same order, the values of `COC(=O)/C=C/CC[C@H](NC(=O)c1cncn1C)C(=O)Nc1cccn(CC(=O)N[C@@H]2C[C@H]3CC[C@@H]2C3)c1=O` [III-62, (S,E)-methyl 7-(1-(2-((1R,2R,4S)-bicyclo[2.2.1]heptan-2-ylamino)-2-oxoethyl)-2-oxo-1,2-dihydropyridin-3-ylamino)-6-(1-methyl-1H-imidazole-5-carboxamido)-7-oxohept-2-enoate] are below 1 ×10⁻⁶ cm/s, 1 to 3 and below 25 nM.
For the compound `COC(=O)/C=C/CC[C@H](NC(=O)c1oc2ccccc2c1C)C(=O)Nc1cccn(CC(=O)N[C@@H]2C[C@H]3CC[C@@H]2C3)c1=O` [III-63, (S,E)-methyl 7-(1-(2-((1R,2R,4S)-bicyclo[2.2.1]heptan-2-ylamino)-2-oxoethyl)-2-oxo-1,2-dihydropyridin-3-ylamino)-6-(3-methylbenzofuran-2-carboxamido)-7-oxohept-2-enoate], in series [1], the apparent permeability (Papp) was in the range of 1 to 10 ×10⁻⁶ cm/s. The same compound returned a pH-dependent lipophilicity (logD) in series [2] of 3 to 5. Besides, the concentration for half-maximal inhibition (IC50) in series [3] is below 25 nM.
In the same order, the values of `COC(=O)/C=C/CC[C@H](NC(=O)c1oc2ccccc2c1C)C(=O)Nc1cccn(CC(=O)NC23CCC(CC2)C3)c1=O` [III-64, (S,E)-methyl 7-(1-(2-(bicyclo[2.2.1]heptan-1-ylamino)-2-oxoethyl)-2-oxo-1,2-dihydropyridin-3-ylamino)-6-(3-methylbenzofuran-2-carboxamido)-7-oxohept-2-enoate] are 1 to 10 ×10⁻⁶ cm/s, 1 to 3 and below 25 nM.
For `COC(=O)/C=C/CC[C@H](NC(=O)c1oc2ccccc2c1C)C(=O)Nc1cccn(CC(=O)NC2C3CCC2CC3)c1=O` (stereo partly drawn) [III-65, (S,E)-methyl 7-(1-(2-(bicyclo[2.2.1]heptan-7-ylamino)-2-oxoethyl)-2-oxo-1,2-dihydropyridin-3-ylamino)-6-(3-methylbenzofuran-2-carboxamido)-7-oxohept-2-enoate], the Papp in series [1] fell in the range of 1 to 10 ×10⁻⁶ cm/s. This compound registered a logD in series [2] of 3 to 5. In addition, in series [3], the IC50 is below 25 nM.
In series [1], `COC(=O)/C=C/CC[C@H](NC(=O)c1oc2ccccc2c1C)C(=O)Nc1cccn(CC(=O)NC2CC3C=CC2C3)c1=O` (stereo partly drawn) [III-66, (S,E)-methyl 7-(1-(2-(bicyclo[2.2.1]hept-5-en-2-ylamino)-2-oxoethyl)-2-oxo-1,2-dihydropyridin-3-ylamino)-6-(3-methylbenzofuran-2-carboxamido)-7-oxohept-2-enoate] returned a Papp of 1 to 10 ×10⁻⁶ cm/s. In addition, the logD in series [2] lay in the range of 1 to 3. The IC50 in series [3] lay within 25 to 250 nM.
In the same order, the values of `COC(=O)/C=C/CC[C@H](NC(=O)c1oc2ccccc2c1C)C(=O)Nc1cccn(CC(=O)NC2CC3CCC2CC3)c1=O` (stereo partly drawn) [III-67, (6S,E)-methyl 7-(1-(2-(bicyclo[2.2.2]octan-2-ylamino)-2-oxoethyl)-2-oxo-1,2-dihydropyridin-3-ylamino)-6-(3-methylbenzofuran-2-carboxamido)-7-oxohept-2-enoate] are 1 to 10 ×10⁻⁶ cm/s, 3 to 5 and below 25 nM.
Taken in the same sequence, the figures for `COC(=O)/C=C/CC[C@H](NC(=O)c1oc2ccccc2c1C)C(=O)Nc1cccn(CC(=O)N[C@@H]2C[C@H]3CC[C@]2(C)C3(C)C)c1=O` [III-68, (S,E)-methyl 6-(3-methylbenzofuran-2-carboxamido)-7-oxo-7-(2-oxo-1-(2-oxo-2-((1R,2R,4R)-1,7,7-trimethylbicyclo[2.2.1]heptan-2-ylamino)ethyl)-1,2-dihydropyridin-3-ylamino)hept-2-enoate] were 1 to 10 ×10⁻⁶ cm/s, 3 to 5 and below 25 nM.
